We go through 39 compounds from patent US20060062729A1, “Enhanced ligand binding to neurotensin receptors” (priority 2004, published 2006).

Several values for one entry are separate records, joined by “and”; a condition that tells them apart may be missing. Identical values can stand only once. Like-named read-outs stand apart in the source and are kept apart here. Non-standard residues stand in square brackets, D forms with d. Residues, ends and D or L forms follow the SMILES beside them. Tyr(3-I) = N[C@@H](Cc1ccc(O)c(I)c1)C(=O)O; pGlu = O=C1CC[C@@H](C(=O)O)N1; Nle = CCCC[C@H](N)C(=O)O A value given as a limit tells only on which side of the number the result lay.

Experiment [1] deals with T1, NTR1 (Homo sapiens, UniProt P30989). Description: ^125I-NT binding to PC3 cells. The following applies: for maximal increase in NT binding to PC3 cells: as much as / up to, dose-response.
Experiment [2] concerns the target T1, NTR1. Description: NT-induced IP formation in PC3 cells. The experiment is classed as cell-based. The arrangement: Ab-NTR1 detected two major bands in extracts of PC3 cells, the parent protein of 50 kDa; endogenous in cells; host or cells: PC3 cells (ATCC).
The target of a further experiment is T2, bombesin receptor (Homo sapiens, UniProt P30550).
T2 construct: endogenous in cells; host or cells: PC3 cells (ATCC)
Description: ^125I-[Nle^14]-bombesin binding to PC3 cells. The following applies: for Specific Binding (% control) of ^125I-[Nle14]-bombesin: 37° C.

Experiment [3] deals with T1, NTR1. Description: ^125I-NT binding to isolated PC3 cell membranes. On the set-up: Ab-NTR1 detected two major bands in extracts of PC3 cells, the parent protein of 50 kDa; endogenous in cells; host or cells: PC3 cells (ATCC).
[4] abbreviates: general reducing agents and antioxidants.
The mark [5] stands for this setting: read-out: NT Binding EC50, [agent] giving 75% increase in NT binding.
Setting [6] is: 6 μM enzyme inhibitor, PC3 cells.
Where [7] appears, read: 20 μM enzyme inhibitor, PC3 cells.
Setting [8] is: 60 μM enzyme inhibitor, PC3 cells.
The mark [9] stands for this setting: vitamin-like antioxidants at 20-180 μM, n=3.

As a reminder, the EC50 is the midpoint of the concentration-response curve. One may read the IC50 as the midpoint of a concentration-inhibition curve.

T1 sequence (P30989 whole entry): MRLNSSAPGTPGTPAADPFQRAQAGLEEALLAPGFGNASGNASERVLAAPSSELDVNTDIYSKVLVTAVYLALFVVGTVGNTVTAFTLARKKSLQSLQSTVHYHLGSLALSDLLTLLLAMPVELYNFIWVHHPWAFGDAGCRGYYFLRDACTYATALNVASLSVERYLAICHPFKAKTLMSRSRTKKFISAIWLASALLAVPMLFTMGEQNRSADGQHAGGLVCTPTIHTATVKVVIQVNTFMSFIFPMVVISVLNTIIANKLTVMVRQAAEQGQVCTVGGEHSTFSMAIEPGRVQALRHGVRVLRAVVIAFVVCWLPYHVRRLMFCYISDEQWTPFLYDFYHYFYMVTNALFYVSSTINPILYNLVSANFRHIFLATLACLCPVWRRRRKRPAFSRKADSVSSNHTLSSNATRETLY
T2 sequence (P30550 whole entry): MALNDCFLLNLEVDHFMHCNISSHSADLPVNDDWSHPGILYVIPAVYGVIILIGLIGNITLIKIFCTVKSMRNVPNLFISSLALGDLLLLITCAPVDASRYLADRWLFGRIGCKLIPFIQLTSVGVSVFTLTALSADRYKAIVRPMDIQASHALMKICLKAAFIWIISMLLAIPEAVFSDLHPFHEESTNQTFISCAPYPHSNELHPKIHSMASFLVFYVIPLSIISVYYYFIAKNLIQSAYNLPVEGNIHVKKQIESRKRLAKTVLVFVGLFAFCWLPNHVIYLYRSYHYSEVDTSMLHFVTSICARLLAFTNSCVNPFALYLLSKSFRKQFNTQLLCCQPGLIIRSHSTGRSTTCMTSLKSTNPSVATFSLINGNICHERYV

As to `O[C@H](CS)[C@H](O)CS` (racemic) [DTT, dithiothreitol], the “effect on NT binding” value on NTR1 [1] (setting [4]) was “not much affected”.

Take `Oc1cc(O)c2c(c1)O[C@H](c1ccc(O)c(O)c1)[C@@H](O)C2` [(+)-catechin]: on NTR1 [1] (used at 10-100 μM, n=3), the “effect on NT binding” value was “without effect”.

As for `CC(=O)OCOC(=O)CN(CC(=O)OCOC(C)=O)c1ccccc1OCCOc1ccccc1N(CC(=O)OCOC(C)=O)CC(=O)OCOC(C)=O` [BAPTA-AM, 1,2-bis(o-aminophenoxy)ethane-N,N,N′,N′-tetraacetic acid tetra(acetoxymethyl) ester], the “effect on NT binding” value on NTR1 [1] (chelation of intracellular Ca^2+, 50 μM BAPTA-AM) is recorded as “nor was NT binding altered”.

As for `COc1ccc(O)c(C(C)(C)C)c1` [BHA, butylated hydroxy anisole], the EC50 on NTR1 [1] (setting [5]) turned out to be 110 µM.

In the case of `COC(=O)C1=C(C)NC(C)=C([N+](=O)[O-])C1c1ccccc1C(F)(F)F` (stereo not drawn) [BayK-8644], at NTR1 [1] (setting [5]), the EC50 was determined as 16 µM.

Take `O=C(/C=C/c1ccc(O)c(O)c1)OCCc1ccccc1` [CAPE, caffeic acid phenethyl ester]: on NTR1 [1], the EC50 was found to be 34 µM and the “maximal increase in NT binding to PC3 cells” value (from here on “maximal increase in NT binding”) was no more than 2.8 fold. For the same compound, the IC50 on NTR1 [2] was 18 µM.

Consider `N#CC(C#N)=NNc1cccc(Cl)c1` [CCCP, Carbonyl cyanide 3-chlorophenylhydrozone], for which the EC50 on NTR1 [1] was found to be 23 µM.

In the case of `COc1ccc([C@@H]2Sc3ccccc3N(CCN(C)C)C(=O)[C@@H]2OC(C)=O)cc1` [Diltiazem, diltiazem], at NTR1 [1], the “maximal increase in NT binding” value is given as no more than 1.4 fold.

For `c1ccc2c(c1)[I+]c1ccccc1-2` [Diphenylene iodonium], at NTR1 [1], the midpoint of the response, the EC50, lay at 61 µM. Further, the IC50 on NTR1 [2] ([agent] giving 50% decrease in IP formation, read-out: IP Formation IC50) was determined as 35 µM.

As to `O=C(O)CN(CCOCCOCCN(CC(=O)O)CC(=O)O)CC(=O)O` [EGTA, ethylene glycol tetra-acetic acid], on NTR1 [1], the “increase in NT binding” value is 38±6 % increase. The “effect on NT-induced IP formation” value at NTR1 [2] (Ca^2+-chelator added) is on record as “inhibited”.

Consider `COC(=O)c1c(C)[nH]c(C)c1C(=O)c1ccccc1Cc1ccccc1` [FPL-64176], for which the EC50 at NTR1 [1] (setting [5]) was found to be 29 µM.

Consider `Cc1cc2c(C(C)C)c(O)c(O)c(C=O)c2c(O)c1-c1c(C)cc2c(C(C)C)c(O)c(O)c(C=O)c2c1O` [Gossypol, gossypol], for which the “NT Binding Efficacy % increase” value at NTR1 [1] (LOX blockers) came out at 170 % increase. Besides, at NTR1 [2] ([agent] that decreased IP formation by 40%, read-out: IP Formation IC50), the IC50 is 20 µM.

As for `CCCc1c(OCCCCc2nnn[nH]2)ccc(C(C)=O)c1O` [LY171883], at NTR1 [1] (LOX blockers), the “NT Binding Efficacy % increase” value was 157 % increase. Besides, the 50% effective concentration (EC50) on NTR1 [1] (read-out: NT Binding EC50, [agent] giving 100% increase in NT binding) amounted to 34 µM.

On to `CC(=O)N[C@@H](CS)C(=O)O` [N-acetyl cysteine], for which, on NTR1 [1] (used at 1-3 mM, n=3), the “effect on NT binding” value was “without effect”.

On to `CC(Cc1ccc(O)c(O)c1)C(C)Cc1ccc(O)c(O)c1` (stereo not drawn) [NDGA, Nordihydroguaiaretic acid], for which the “Specific Binding (% control) of ^125I-[Nle14]-bombesin” value on bombesin receptor (12 μM LOX blocker) came out at 110 ± 3 % control; at bombesin receptor (60 μM LOX blocker), 127 ± 4 % control. Also, the “Specific NT-Binding (% control)” value came to 110 ± 5 % control at NTR1 [3] (10 μM LOX pathway blocker), 121 ± 8 % control at NTR1 [3] (25 μM LOX pathway blocker) and 132 ± 10 % control on NTR1 [3] (75 μM LOX pathway blocker).

`CC1=C(/C=C/C(C)=C/C=C/C(C)=C/C(=O)O)C(C)(C)CCC1` [Retinoic Acid, retinoic acid]: the “Specific NT-Binding (% control)” value on NTR1 [3] (10 μM LOX pathway blocker) came to 102 ± 3 % control; on NTR1 [3] (25 μM LOX pathway blocker), 115 ± 4 % control; at NTR1 [3] (75 μM LOX pathway blocker), 142 ± 8 % control.

With `CCCCCC(O)c1cccc(OCc2ccc3ccccc3n2)c1` (stereo not drawn) [Rev5901], the “Specific Binding (% control) of ^125I-[Nle14]-bombesin” value is recorded as 107 ± 3 % control on bombesin receptor (12 μM LOX blocker) and 119 ± 3 % control on bombesin receptor (60 μM LOX blocker). Further, the “NT Binding Efficacy % increase” value at NTR1 [1] (LOX blockers) was determined as 160 % increase. The “maximal increase in NT binding” value on NTR1 [1] is listed as no more than 2.4 fold. Also, the “Specific NT-Binding (% control)” value was 101 ± 4 % control at NTR1 [3] (10 μM LOX pathway blocker), 113 ± 5 % control on NTR1 [3] (25 μM LOX pathway blocker) and 110 ± 5 % control on NTR1 [3] (75 μM LOX pathway blocker).

In the case of `C[S+]([O-])c1ccc(-c2nc(-c3ccncc3)c(-c3ccc(F)cc3)[nH]2)cc1` (stereo not drawn) [SB203580], the entries for the “Specific NT-Binding (% control)” value at NTR1 [1] (setting [6]), at NTR1 [1] (setting [7]) and at NTR1 [1] (setting [8]) were 108 ± 8 % control, 116 ± 7 % control and 125 ± 9 % control, respectively.

Turning to `COc1ccc(CCCOC(Cn2ccnc2)c2ccc(OC)cc2)cc1` (stereo not drawn) [SKF-96365], the “Specific Binding (% control) of ^125I-[Nle^14]-bombesin” value came out at 99 ± 2 % control on bombesin receptor (12 μM agent) and 106 ± 4 % control on bombesin receptor (60 μM agent).

Consider `N#CC(=C(/N)Sc1ccccc1N)/C(C#N)=C(\N)Sc1ccccc1N` [U0126], for which, on NTR1 [1], the “Specific NT-Binding (% control)” value is 118 ± 6 % control and 108 ± 6 % control and 120 ± 9 % control.

`COc1ccc(CCN(C)CCCC(C#N)(c2ccc(OC)c(OC)c2)C(C)C)cc1OC` (stereo not drawn) [Verapamil, verapamil]: the “Specific Binding (% control) of ^125I-[Nle^14]-bombesin” value at bombesin receptor (12 μM agent) and on bombesin receptor (60 μM agent) was 104 ± 4 % control in each case.

On to `CCCC[C@H](NC(=O)[C@H](CC(C)C)NC(=O)[C@H](Cc1c[nH]cn1)NC(=O)CNC(=O)[C@@H](NC(=O)[C@H](C)NC(=O)[C@H](Cc1c[nH]c2ccccc12)NC(=O)[C@H](CCC(N)=O)NC(=O)[C@H](CC(N)=O)NC(=O)CNC(=O)[C@H](Cc1ccc(O)c(I)c1)NC(=O)[C@H](CCCNC(=N)N)NC(=O)[C@H](CCC(N)=O)NC(=O)[C@@H]1CCC(=O)N1)C(C)C)C(N)=O` [^125I-[Nle^14]-bombesin] ([pGlu]QR[Tyr(3-I)]GNQWAVGHL[Nle]-NH2; C-terminus assumed), for which, at bombesin receptor (10^5 cpm ^125I-ligand), the “Specific Binding (% of total)” value was 95 % of total. Further, on bombesin receptor (Scatchard analysis), the Bmax is given as 1016 ± 64 fmol/mg.

On to `O=C1O[C@H]([C@@H](O)CO)C(O)=C1O` [ascorbic acid], for which the “effect on NT binding” value at NTR1 [1] (setting [4]) is on record as “not much affected”; on NTR1 [1] (setting [9]) it was “ineffective”.

Turning to `O=c1oc2c(O)c(O)cc3c(=O)oc4c(O)c(O)cc1c4c23` [ellagic acid], on NTR1 [1] (used at 10-100 μM, n=3), the “effect on NT binding” value was “without effect”.

On to `Fc1ccc(C(c2ccc(F)cc2)N2CCN(C/C=C/c3ccccc3)CC2)cc1` [flunarizine], for which the “effect on NT binding” value on NTR1 [1] (less specific CCBs) is given as “only modest effects”.

For the compound `N[C@@H](CCC(=O)N[C@@H](CS)C(=O)NCC(=O)O)C(=O)O` [glutathione], the “effect on NT binding” value on NTR1 [1] (used at 1-3 mM, n=3) is “without effect”.

As for `COc1ccc2c(c1)c(CC(=O)O)c(C)n2C(=O)c1ccc(Cl)cc1` [indomethacin], the “Specific NT-Binding (% control)” value is recorded as 109 ± 4 % control on NTR1 [1] (setting [6]), 95 ± 6 % control at NTR1 [1] (setting [7]) and 113 ± 7 % control at NTR1 [1] (setting [8]).

On to `Clc1ccc(COC(Cn2ccnc2)c2ccc(Cl)cc2Cl)c(Cl)c1` (stereo not drawn) [miconazole], for which, on NTR1 [1] (maximal % increase in NT binding observed for each agent), the “NT Binding Efficacy % increase” value amounted to 75 % increase. Besides, the “IP Formation Efficacy (% decrease)” value on NTR1 [2] (maximal % decrease in NT-induced IP formation) came out at 54 % decrease.

`Cc1ncc(CO)c(CO)c1O` [pyridoxine]: the “effect on NT binding” value at NTR1 [1] (setting [4]) is reported as “not much affected”; at NTR1 [1] (setting [9]) it was “ineffective”.

As to `O=c1c(O)c(-c2ccc(O)c(O)c2)oc2cc(O)cc(O)c12` [quercetin], the “effect on NT binding (figure legend)” value at NTR1 [1] (FIG. 21A) was “enhanced NT-binding to NTR”. Further, at NTR1 [2] (FIG. 21B), the “effect on NT-induced IP formation (figure legend)” value is recorded as “inhibited NT-induced IP formation”.

On to `Cc1cc2nc3c(=O)[nH]c(=O)nc-3n(C[C@H](O)[C@H](O)[C@H](O)CO)c2cc1C` [riboflavin], for which the “effect on NT binding” value was “not much affected” on NTR1 [1] (setting [4]) and “ineffective” on NTR1 [1] (setting [9]).

On to `C=C(C)[C@H]1Cc2c(ccc3c2O[C@@H]2COc4cc(OC)c(OC)cc4[C@@H]2C3=O)O1` [rotenone], for which a half-maximal effect at NTR1 [1] (EC50) was put at 38 µM.

On to `[BH4-].[Na+]` [sodium borohydride], for which the “effect on NT binding” value on NTR1 [1] (setting [4]) was “not much affected”; on NTR1 [1] (used at 1-3 mM, n=3), “without effect”.

For `Cc1ncc(C[n+]2csc(CCO)c2C)c(N)n1` [thiamine], the results for the “effect on NT binding” value at NTR1 [1] (setting [4]) and at NTR1 [1] (setting [9]) were “not much affected” and “ineffective”, respectively.

On to `CN1CCN(CCCN2c3ccccc3Sc3ccc(C(F)(F)F)cc32)CC1` [trifluoperazine], for which, on NTR1 [1] (less specific CCBs), the “effect on NT binding” value was “only modest effects”.

Turning to `Cc1c(C)c2c(c(C)c1O)CCC(C)(C(=O)O)O2` (stereo not drawn) [trolox], the “effect on NT binding” value is recorded as “not much affected” at NTR1 [1] (setting [4]) and “without effect” at NTR1 [1] (used at 10-100 μM, n=3).

As to `Cc1c(C)c2c(c(C)c1O)CC[C@@](C)(CCC[C@H](C)CCC[C@H](C)CCCC(C)C)O2` [α-tocoferol], the “effect on NT binding” value on NTR1 [1] (setting [9]) is “ineffective”.

Consider `CC1=C(/C=C/C(C)=C/C=C/C(C)=C/C=C/C=C(C)/C=C/C=C(C)/C=C/C2=C(C)CCCC2(C)C)C(C)(C)CCC1` [β-carotene], for which the “effect on NT binding” value on NTR1 [1] (setting [9]) is listed as “ineffective”.

(−)-epigallocatechin gallate: the “effect on NT binding” value on NTR1 [1] (used at 10-100 μM, n=3) is given as “without effect”.
